Results reported in ChEMBL document CHEMBL1129670, “Synthesis and structure-activity relationships of N-propyl-N-(4-pyridinyl)-1H-indol-1-amine (besipirdine) and related analogs as potential therapeutic agents for Alzheimer's disease” (J Med Chem, 1996).

Legend:
[1] = biological target: T1, Muscarinic acetylcholine receptor M1 (Rattus norvegicus, UniProt P08482); assay: Inhibitory activity against [3H]pirenzepine binding to muscarinic M1 receptor in rat cortex
T1 sequence (P08482 whole entry): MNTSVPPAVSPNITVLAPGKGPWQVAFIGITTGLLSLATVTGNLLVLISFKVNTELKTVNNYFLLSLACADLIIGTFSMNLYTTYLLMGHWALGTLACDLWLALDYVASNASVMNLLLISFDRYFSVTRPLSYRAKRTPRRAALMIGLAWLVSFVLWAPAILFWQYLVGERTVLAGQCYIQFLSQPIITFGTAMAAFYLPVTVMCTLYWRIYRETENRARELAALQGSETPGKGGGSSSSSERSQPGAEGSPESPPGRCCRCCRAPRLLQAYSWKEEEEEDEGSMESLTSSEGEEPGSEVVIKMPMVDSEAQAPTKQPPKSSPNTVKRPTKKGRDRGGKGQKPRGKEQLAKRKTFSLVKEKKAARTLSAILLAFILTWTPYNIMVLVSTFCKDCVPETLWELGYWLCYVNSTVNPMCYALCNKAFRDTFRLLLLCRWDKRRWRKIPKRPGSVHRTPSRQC

[2] = biological target: T2, Adrenergic receptor alpha-2 (Rattus norvegicus, UniProt P22086+P19328+P22909); assay: Inhibitory activity against [3H]idazoxan binding to Alpha-2 adrenergic receptor in rat cortex, in the presence of GPP
T2 sequence (P22086 whole entry): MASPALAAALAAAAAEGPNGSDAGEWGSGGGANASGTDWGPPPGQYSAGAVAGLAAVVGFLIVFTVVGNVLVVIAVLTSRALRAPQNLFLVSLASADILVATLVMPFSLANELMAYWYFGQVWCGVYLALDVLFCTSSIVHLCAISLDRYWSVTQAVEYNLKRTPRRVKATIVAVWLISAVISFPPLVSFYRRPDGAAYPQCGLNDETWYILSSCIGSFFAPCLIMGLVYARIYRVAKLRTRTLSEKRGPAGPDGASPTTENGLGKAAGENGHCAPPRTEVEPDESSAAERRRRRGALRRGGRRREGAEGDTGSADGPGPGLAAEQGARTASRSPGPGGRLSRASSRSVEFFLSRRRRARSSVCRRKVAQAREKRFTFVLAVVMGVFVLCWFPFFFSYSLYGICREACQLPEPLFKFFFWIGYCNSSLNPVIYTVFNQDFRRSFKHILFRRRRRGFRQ
T2 sequence (P19328 whole entry): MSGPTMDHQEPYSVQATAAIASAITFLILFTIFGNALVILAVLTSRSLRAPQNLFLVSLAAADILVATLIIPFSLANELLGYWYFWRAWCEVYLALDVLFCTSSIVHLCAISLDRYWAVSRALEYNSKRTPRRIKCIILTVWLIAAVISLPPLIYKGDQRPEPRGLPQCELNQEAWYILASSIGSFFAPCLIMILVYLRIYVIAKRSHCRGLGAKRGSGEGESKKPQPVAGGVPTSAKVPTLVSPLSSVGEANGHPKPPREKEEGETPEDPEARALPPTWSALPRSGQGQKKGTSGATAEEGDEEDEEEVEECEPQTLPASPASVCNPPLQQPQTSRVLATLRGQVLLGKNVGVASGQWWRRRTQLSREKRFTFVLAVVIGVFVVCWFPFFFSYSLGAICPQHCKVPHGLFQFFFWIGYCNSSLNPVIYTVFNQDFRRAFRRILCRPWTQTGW
T2 sequence (P22909 whole entry): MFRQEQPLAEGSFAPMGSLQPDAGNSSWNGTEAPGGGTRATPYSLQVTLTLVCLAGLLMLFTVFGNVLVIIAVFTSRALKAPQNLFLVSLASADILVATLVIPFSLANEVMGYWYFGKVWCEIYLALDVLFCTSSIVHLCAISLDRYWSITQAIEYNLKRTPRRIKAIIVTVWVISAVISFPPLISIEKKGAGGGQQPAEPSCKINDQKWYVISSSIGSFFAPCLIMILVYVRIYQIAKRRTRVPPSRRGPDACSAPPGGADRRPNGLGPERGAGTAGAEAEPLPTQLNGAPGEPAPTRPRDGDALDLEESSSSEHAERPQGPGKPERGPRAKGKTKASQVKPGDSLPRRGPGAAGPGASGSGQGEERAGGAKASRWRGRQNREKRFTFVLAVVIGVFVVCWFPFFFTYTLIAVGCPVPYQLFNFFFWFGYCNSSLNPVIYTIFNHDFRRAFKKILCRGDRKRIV

Mus musculus = species on record: Mus musculus; details: dose 0.63 mg/kg; route subcutaneous
Description: Antagonistic activity against Scopolamine induced behavioral deficits in mice at dose 0.63 mg/kg sc

Acetylcholinesterase = biological target: T3, Acetylcholinesterase (Rattus norvegicus, UniProt P37136); assay: Inhibitory activity against Acetylcholinesterase in rat striatum; type: tissue-based
T3 sequence (P37136 whole entry): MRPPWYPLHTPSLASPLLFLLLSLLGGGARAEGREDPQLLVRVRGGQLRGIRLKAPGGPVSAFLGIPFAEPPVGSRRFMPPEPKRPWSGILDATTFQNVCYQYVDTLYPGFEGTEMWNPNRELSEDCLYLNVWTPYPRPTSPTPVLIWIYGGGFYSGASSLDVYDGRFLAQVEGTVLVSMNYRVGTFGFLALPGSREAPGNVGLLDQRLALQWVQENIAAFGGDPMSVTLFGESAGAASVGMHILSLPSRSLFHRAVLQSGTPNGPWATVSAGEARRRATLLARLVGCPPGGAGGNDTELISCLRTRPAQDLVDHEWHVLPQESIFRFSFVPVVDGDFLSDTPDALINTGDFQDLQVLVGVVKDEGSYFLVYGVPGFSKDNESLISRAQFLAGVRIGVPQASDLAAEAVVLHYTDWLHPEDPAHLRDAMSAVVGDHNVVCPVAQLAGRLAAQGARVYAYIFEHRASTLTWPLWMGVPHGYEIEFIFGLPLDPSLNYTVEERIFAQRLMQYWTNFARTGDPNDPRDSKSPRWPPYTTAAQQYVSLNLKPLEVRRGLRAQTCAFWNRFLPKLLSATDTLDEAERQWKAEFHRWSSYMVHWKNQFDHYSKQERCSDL

[3] = biological target: T2, Adrenergic receptor alpha-2; assay: Inhibitory activity against [3H]-idazoxan binding to Alpha-2 adrenergic receptor in rat cortex
[4] = biological target: T4, Muscarinic acetylcholine receptor M2 (Rattus norvegicus, UniProt P10980); assay: Inhibitory activity against [3H]N-methyl-scopolamine binding to Muscarinic acetylcholine receptor M2 in rat cerebellum; type: tissue-based
T4 sequence (P10980 whole entry): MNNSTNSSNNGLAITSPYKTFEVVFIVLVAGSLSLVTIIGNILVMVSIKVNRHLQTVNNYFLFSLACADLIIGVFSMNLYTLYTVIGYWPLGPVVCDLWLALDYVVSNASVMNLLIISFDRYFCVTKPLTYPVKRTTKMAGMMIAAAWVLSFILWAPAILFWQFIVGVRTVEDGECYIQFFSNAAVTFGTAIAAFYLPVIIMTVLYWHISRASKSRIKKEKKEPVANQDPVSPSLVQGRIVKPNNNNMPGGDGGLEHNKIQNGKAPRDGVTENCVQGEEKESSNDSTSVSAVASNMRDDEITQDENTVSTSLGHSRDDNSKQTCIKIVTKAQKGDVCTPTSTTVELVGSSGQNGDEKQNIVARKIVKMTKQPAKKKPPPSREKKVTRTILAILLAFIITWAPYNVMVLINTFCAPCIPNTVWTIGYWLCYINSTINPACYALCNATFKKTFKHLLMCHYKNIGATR

**Q.** `CCCN(c1ccncc1)n1ccc2ccccc21` [BESIPIRDINE] was tested. Which IC50 [1] did it give?
**A.** The IC50 was 1300 nM.

**Q.** And the IC50 [2]?
**A.** Its IC50 is 0.14 µM.

**Q.** And the Response (Mus musculus)?
**A.** Its Response is 40%.

**Q.** And the IC50 (Acetylcholinesterase)?
**A.** Its IC50 is greater than 100 µM.

**Q.** What about the IC50 [3] of the same compound?
**A.** The IC50 was 0.47 µM.

**Q.** What about the IC50 [4] of the same compound?
**A.** The IC50 was 1000 nM.
